One test has as its system MCF7:GFP-PDCD4^S71A/S76A. The test is described as follows: Fluorescence reporter assay for PDCD4 accumulation, mutant. Type of test: cell-based. The following applies: PDCD4 mutated to eliminate PDCD4-βTrCP interaction. How it is done: Fluorescence Reporter Assay for PDCD4 Accumulation
This assay uses two stable cell lines expressing PDCD4 fused to a GFP tag.
The two stable cell lines MCF7:GFP-PDCD4^WT and MCF7:GFP-PDCD4^S71A/S76Awere grown in 10 ml DMEM+10% FBS and 1% Pen/Strep supplemented with 2 mg/ml Geneticin at 37° C./5% CO2. These cell lines were nucleofected as described above except for the additional supplementation of all media with 2 mg/ml Geneticin.
Fluorescent Reporter Assay
The cells were fixed by removing the growth media and adding 3.7% Formaldehyde in PBS to the cells. The cells were then incubated at RT for 20 mins and the plates washed 3× in PBS.
DRAQ5 DNA stain was added to the cells in PBS at a concentration of 1:10000 and incubated at RT for 1 hour protecting from light. The plate was washed 3× in PBS and read on the Perkin Elmer OPERA platform using the nuclei counting algorithm F in both the 488 nm channel (GFP) and 640 nm channel (DRAQ5). DMSO was used as a negative control and 10 μM MG132 was used as a positive control. Error bars represent standard deviation from 6 replicates. The data are expressed as percentage activity with DMSO (WT)=0% and 10 μM MG132 (WT)=100% activity.
This confirms that the stabilisation resulting from the compounds is dependent on the βTrCP/PDCD4 interaction and is not due to another mechanism such as a global increase in protein production.

The test system of another test is β-catenin in MCF7 cells. Nature of the test: β-Catenin in cell western. In kind it is cell-based. How it is done:
β-Catenin in Cell Western
Plating of the MCF7 cells onto 96 well plates—this step is carried out 1 day before the treatment of the cells to allow the cells to adhere well to the tissue culture plastic. MCF7 cells to be used for seeding should be less than 100% confluent in a 10 cm dish. Add 3 ml of RT trypsin/EDTA to the cells. Incubate at 37° C./5% CO2 for a few minutes until the cells easily come away from the plastic by gentle swirling. Add 7 ml of media to the cells. Wash the bottom of the plate gently with the 10 ml to ensure all cells are captured and dispense into a 15 ml falcon. Add 1001l of the cells to 1001l of Trypan blue and add to haemocytometer to count the number of cells present. Make up approx 10 ml of cells in media at 2×10^4 cells/1001l (well) with fresh media. Add this correct seeding density to a 10 cm dish. Dispense 1001l of cells/well into a 96 well plate without using the outside wells. Incubate at 37° C./5% CO2 overnight
Treatment of MCF7 cells with compound of interest (COI) and controls—Put OptiMEM into 37° C. water bath to warm. Add 4 ul of 50 mM compound X for testing to eppendorf—this is tube 1. Add 2 al DMSO to 6 tubes marked tube 2-7. Take 21 al of 50 mM (COI) and add to 2 al of DMSO in tube 2 and pipette up and down to mix. Take 21 al from tube 2 and add to 2 μl DMSO in next tube and mix. […]

Non-standard residues stand in square brackets, D forms with d. Residues, ends and D or L forms follow the SMILES beside them. Groups on a side chain read outwards from the residue. *: point of attachment. X3 = CC(C)CCC[C@@H](C)[C@H]1CCC2C3CC=C4C[C@@H](OC(=O)*)CC[C@]4(C)C3CC[C@@]21C; Benzenesulfonyl(4-OMe) = COc1ccc(S(=O)(=O)*)cc1; Phe(3-F) = N[C@@H](Cc1cccc(F)c1)C(=O)O; Ahx = NCCCCCC(=O)O

On to `COc1ccc(S(=O)(=O)N[C@H](CC(=O)O)C(=O)N[C@@H](CCC(=O)O)C(=O)NCC(=O)N[C@@H](Cc2cccc(F)c2)C(=O)N[C@@H](Cc2c[nH]c3ccccc23)C(=O)N[C@@H](CCC(=O)O)C(=O)NCCCCCC(=O)N[C@@H](CCCCNC(=O)CCCCCNC(=O)O[C@H]2CC[C@@]3(C)C(=CCC4C3CC[C@@]3(C)C4CC[C@@H]3[C@H](C)CCCC(C)C)C2)C(N)=O)cc1` (some centres unmarked) [UBP036, 4-(MeO)PhSO2-dEGF(3F)WE-Ahx-K(Ahx-Chol)-NH2] ({Benzenesulfonyl(4-OMe)}-[dD]EG[Phe(3-F)]WE[Ahx]K([Ahx-X3])-NH2), for which, in the test with MCF7:GFP-PDCD4^S71A/S76A, the “accumulation of GFP-PDCD4 Mut, fluorescent reporter assay” value is “no accumulation of PDCD4”. Besides, the “accumulation of β-catenin, in cell western” value with β-catenin in MCF7 cells is given as “accumulation of β-catenin”.

(Values after patent publication US20190106460A1, “BINDING INHIBITORS OF THE BETA. TRANSDUCIN REPEAT-CONTAINING PROTEIN” (priority 2011, published 2019).)
